Molecular target: T1, PfHT (Plasmodium falciparum, UniProt Q7KWJ5)
T1 sequence (Q7KWJ5 1-504): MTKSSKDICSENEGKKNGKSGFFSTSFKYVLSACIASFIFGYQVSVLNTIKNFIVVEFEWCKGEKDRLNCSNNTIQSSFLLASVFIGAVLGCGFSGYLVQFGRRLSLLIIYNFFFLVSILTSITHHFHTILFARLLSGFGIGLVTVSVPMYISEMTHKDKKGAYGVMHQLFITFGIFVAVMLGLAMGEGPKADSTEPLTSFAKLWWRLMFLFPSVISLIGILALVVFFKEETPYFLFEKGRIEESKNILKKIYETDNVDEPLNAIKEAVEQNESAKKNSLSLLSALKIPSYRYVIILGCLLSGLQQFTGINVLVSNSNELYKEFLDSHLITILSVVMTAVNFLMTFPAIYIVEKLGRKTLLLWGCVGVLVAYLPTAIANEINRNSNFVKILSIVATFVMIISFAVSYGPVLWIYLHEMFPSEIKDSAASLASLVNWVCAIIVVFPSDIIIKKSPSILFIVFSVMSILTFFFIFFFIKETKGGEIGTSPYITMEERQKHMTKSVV
Experiment: 2-DG uptake by HEK293 cells overexpressing PfHT
Type: cell-based
Parameters: expressed in transfected cells; host or cells: HEK293 (HEK293-FLIP, native hGLUT1 knocked down by shRNA)
Conditions: for remaining activity at 0.001 µM: 0.001 µM compound; for remaining activity at 0.3125 µM: 0.3125 µM compound (0.313 in Fig 1 sheet for WU-1); for remaining activity at 0.625 µM: 0.625 µM compound; for remaining activity at 1.25 µM: 1.25 µM compound; for remaining activity at 2.5 µM: 2.5 µM compound; for remaining activity at 5 µM: 5 µM compound; for remaining activity at 10 µM: 10 µM compound; for remaining activity at 20 µM: 20 µM compound; for remaining activity at 80 µM: 80 µM compound; for remaining activity at 160 µM: 160 µM compound; for remaining activity at 225 µM: 225 µM compound; for IC50: IC50 for inhibition of 2-DG uptake, HEK293 cells overexpressing PfHT, mean/reported value
Description: Generation of HEK293 cells overexpressing PfHT and human GLUTs 1–4 were described elsewhere. Briefly, HEK293 cells were transfected with pcDNA3.1 FLII12Pglu-7006 (Addgene), containing the fluorescence resonance energy transfer (FRET) glucose sensor (HEK293-FLIP) and PfHT, human GLUT1 (hGLUT1), hGLUT2, hGLUT3, hGLUT4, hGLUT5 or hGLUT8 using Optifect (Life Technologies) according to manufacturer’s specifications. To increase retention of GLUT8 at the plasma membrane, the dileucine sorting signal E^7E^8XXXLL was modified to R^7R^8XXXLL as described in [17]. Stable transfectants were selected for G418 and hygromycin resistance to select for FRET sensor and hexose transporter, respectively. HEK293-FLIP cells were also used to generate cells stably transfected with FLAG-tagged PfHT (FTPfHT). FLAG tag ([…]) followed by a triple glycine linker and a tobacco etch virus (TEV) protease site (ENLYFQS) followed by a triple glycine linker was added to the N-terminus of PfHT via PCR [18] using Phusion Hot Start II High-Fidelity DNA Polymerase (Fisher Scientific). Single clones were selected by comparing their abilities to transport glucose as assayed via FRET and radiolabeled hexose uptake. In all cell lines, except for HEK293 cells overexpressing hGLUT1 and hGLUT5, native hGLUT1 was knocked down using shRNA as described elsewhere. Transcript levels of the individual GLUTs expressed in each cell line are as described in [13, 15] and in S1 Fig.
Glucose uptake by P. falciparum was performed essentially as described. P. falciparum strain 3D7 was cultured in 100 mm tissue culture dishes (Techno Plastic Products) in a 2% suspension of human erythrocytes and RPMI 1640 medium until reaching > 7.5% parasitemia. Cells were pelleted via centrifugation and resuspended in RPMI 1640 medium. To determine the uptake of radiolabeled glucose into the parasite, parasites were isolated from infected erythrocytes by permeablization with saponin (0.05 w/v), followed by centrifugation, aspiration of supernatant and washing of the pellet 3X with saline solution (135 mM NaCl, 2 mM KCl, 25 mM HEPES, 0.2 mM glucose and 1 mM MgCl2; pH 7.1) to remove cellular debris. WU-1 or DMSO vehicle were added to 100 μl parasites (resuspended in saline) 5 min prior to the addition of 100 μl [^14C]2-DOG (0.2- μCi/ml final concentration). 2-DG uptake was stopped after 2 min by layering the entire reaction over 300 μl of an oil mixture (5:4 mix of dibutyl phthalate / dinonyl phthalate) in Eppendorf tubes and centrifuged at 15,850 × g for 2 mins. The ratio of the estimated intracellular concentration of radiolabel relative to the extracellular concentration were calculated as described. Uptake of radiolabeled hexose into HEK293 cells was measured in glucose-free HBSS as described previously. Briefly, cells were plated at 400,000 cells/well overnight at 37°C in 24-well plates pre-treated with PEI. After 30-min incubation at 37°C in glucose-free HBSS in the presence of vehicle or increasing concentrations of compound, 2-DG uptake was measured in glucose-free HBSS for 4 min at 37°C. Cultures were washed in ice-cold 1X PBS and lysed in 0.1% Triton X-100 in 1X PBS. Radiolabeled hexose uptake was determined by liquid scintillation counting (Ultima Gold, Thermo Fisher) and normalized to total protein per well. Uptake data are plotted as percent uptake relative to vehicle-treated cells. Kinetic analyses were performed using the indicated concentrations of substrate and WU-1, with quenching of uptake after 1 min incubation. Incubation times had been previously determined as being in the linear range of time-dependent radiolabeled hexose uptake (2 min for 2-DG uptake into freed parasites; 2 and 4 min for D-Frc and 2-DG uptake HEK cell lines, respectively). Data were fit by least squares nonlinear regression analysis using GraphPad Prism 6.0 software.

[1] = HEK293, 4 min, read-out: 2-DG uptake (percent uptake relative to vehicle), AVE, PfHT
[2] = HEK293, 4 min, read-out: % Inhibition of 2-DG uptake vs vehicle

Row | SMILES | remaining activity at 0.001 µM [1] [%] | remaining activity at 0.3125 µM [1] [%] | remaining activity at 0.625 µM [1] [%] | remaining activity at 1.25 µM [1] [%] | remaining activity at 2.5 µM [1] [%] | remaining activity at 5 µM [1] [%] | remaining activity at 10 µM [1] [%] | remaining activity at 20 µM [1] [%] | remaining activity at 40 µM (HEK293, 4 min, read-out: 2-DG uptake (percent uptake relative to vehicle), AVE, PfHT, 40 µM compound) [%] | remaining activity at 80 µM [1] [%] | remaining activity at 160 µM [1] [%] | remaining activity at 225 µM [1] [%] | inhibition at 10 µM [2] [%] | IC50 [µM] | inhibition at 2.5 µM [2] [%]
1 | COc1cc(/C=N/NC(=O)c2cc(-c3ccccc3)sc2N)cc(OC)c1OC [WU-3, 2-amino-5-phenyl-N'-[(E)-(3,4,5-trimethoxyphenyl)methylidene]thiophene-3-carbohydrazide] | 100 | 109 | 104 | 103 | 104 | 87.6 | 62 | 42.7 | 42.2 | 37.1 | 31.1 | 18.9 | 51.8 | 9.2 | –
2 | COc1cc(/C=C2\COC/C(=C\c3cc(OC)c(OC)c(OC)c3)C2=O)cc(OC)c1OC [WU-5, (3E,5E)-3,5-bis[(3,4,5-trimethoxyphenyl)methylidene]oxan-4-one] | 100 | 92.8 | 89.8 | 72.2 | 61.4 | 48.9 | 32 | 30.9 | – | 32.8 | 34.5 | 35.8 | – | 1.9 | 47
